What was measured:
normotensive rats [1] = assay: Influence on blood pressure in normotensive rats; type: in vivo, rat
Protocol: Normotensive rats were anesthetized with thiopental (75 mg/kg ip). The right carotid artery was cannulated with a polyethylene tube filled with heparin solution to allow pressure measurements, using a Datamax apparatus (Columbus Instruments, Columbus, OH, USA). The tested compound was administered intraperitoneally after 15 min of stabilization period and its effect on blood pressure was measured.

D2 receptors = test system: D2 receptors; set-up: method as in PMID 34451841; settings: previous studies; cited from earlier work
5-HT1A receptors = test system: 5-HT1A receptors; set-up: method as in PMID 34451841; settings: previous studies; cited from earlier work
normotensive rats [2] = assay: Effect on a normal electrocardiogram in rats; type: in vivo; set-up: Rate: unit not given here; settings: rat; for PR / QRS: in ms (unit assumed)
Protocol: To verify the influence of the tested compound on the normal electrocardiogram (ECG), the experiment was performed. Aspel ASCARD apparatus (standard II lead, with tape speed 50 mm/s and voltage calibration 1 mV = 1 cm) was used for ECG measurements. Normotensive rats were anesthetized with thiopental (75 mg/kg ip). The ECG was recorded prior and 5, 10, 15, 20, 30, 40, 50, 60, and 80 min after intraperitoneal administration of the tested compound. The influence on PQ, QTc interval, QRS complex, and heart rate was evaluated. Bazzett’s formula, QTc = QT/√RR, was used to calculate QTc.

mice = test system: mice; set-up: method as in PMID 34451841; settings: previous studies; cited from earlier work
α2-adrenoceptor = α2-adrenoceptor radioligand binding assay ([3H]-clonidine, rat cerebral cortex)
Protocol: The α1-, α2-, and β1-adrenoceptor radioligand binding assay was carried out on the rat cerebral cortex. […] The brains were homogenized using ULTRA-TURRAX homogenizer in 10 mL of an ice-cold 50 mM Tris–HCl buffer (pH 7.6). Homogenates were centrifuged at 20,000× g for 20 min (0–4 °C). Next, the cell pellet was resuspended in the Tris–HCl buffer and centrifuged again. Radioligand binding assays were performed in plates (MultiScreen/Millipore). The final incubation mixture (volume 300 μL) consisted of 240 μL of the tissue suspension, 30 μL of radioligand solution, and 30 μL of the buffer containing 7–8 concentrations of the tested compound. […] The incubation was terminated by rapid filtration through Whatman GF/C filters using a vacuum manifold (Millipore). The filters were then washed twice with the assay buffer and placed in scintillation vials with a liquid scintillation cocktail. […] All the assays were made in duplicates and the inhibitory constants (Ki) were estimated.

[3] = 1.25 mg/kg ip, from 5 min after injection

effect on PR (normotensive rats [2]; 10 mg/kg): no effect
effect on QRS (normotensive rats [2]; 10 mg/kg): no effect
Rate (normotensive rats [2]; 10 mg/kg ip, 0 min): 357.1 ± 22.6
PR (normotensive rats [2]; 10 mg/kg ip, 0 min): 53.9 ± 2.8
QRS (normotensive rats [2]; 10 mg/kg ip, 0 min): 22.6 ± 1.8
Rate (normotensive rats [2]; 10 mg/kg ip, 5 min): 347.3 ± 25.2
PR (normotensive rats [2]; 10 mg/kg ip, 5 min): 53.0 ± 3.3
QRS (normotensive rats [2]; 10 mg/kg ip, 5 min): 21.5 ± 1.4
Rate (normotensive rats [2]; 10 mg/kg ip, 10 min): 347.9 ± 29.2
PR (normotensive rats [2]; 10 mg/kg ip, 10 min): 55.8 ± 2.0
QRS (normotensive rats [2]; 10 mg/kg ip, 10 min): 23.2 ± 3.6
Rate (normotensive rats [2]; 10 mg/kg ip, 15 min): 345.0 ± 32.7
PR (normotensive rats [2]; 10 mg/kg ip, 15 min): 54.9 ± 2.4
QRS (normotensive rats [2]; 10 mg/kg ip, 15 min): 23.5 ± 2.6
Rate (normotensive rats [2]; 10 mg/kg ip, 20 min): 343.4 ± 33.6
PR (normotensive rats [2]; 10 mg/kg ip, 20 min): 53.1 ± 4.4
QRS (normotensive rats [2]; 10 mg/kg ip, 20 min): 23.6 ± 2.9
Rate (normotensive rats [2]; 10 mg/kg ip, 30 min): 338.5 ± 26.3
PR (normotensive rats [2]; 10 mg/kg ip, 30 min): 52.2 ± 4.4
QRS (normotensive rats [2]; 10 mg/kg ip, 30 min): 22.9 ± 1.6
Rate (normotensive rats [2]; 10 mg/kg ip, 40 min): 337.5 ± 25.0
PR (normotensive rats [2]; 10 mg/kg ip, 40 min): 55.6 ± 2.6
QRS (normotensive rats [2]; 10 mg/kg ip, 40 min): 24.5 ± 1.8
Rate (normotensive rats [2]; 10 mg/kg ip, 50 min): 342.2 ± 25.8
PR (normotensive rats [2]; 10 mg/kg ip, 50 min): 53.6 ± 4.4
QRS (normotensive rats [2]; 10 mg/kg ip, 50 min): 23.9 ± 2.5
Rate (normotensive rats [2]; 10 mg/kg ip, 60 min): 344.5 ± 28.9
PR (normotensive rats [2]; 10 mg/kg ip, 60 min): 54.7 ± 3.1
QRS (normotensive rats [2]; 10 mg/kg ip, 60 min): 23.2 ± 1.9
Rate (normotensive rats [2]; 10 mg/kg ip, 80 min): 350.7 ± 28.1
PR (normotensive rats [2]; 10 mg/kg ip, 80 min): 54.9 ± 4.2
QRS (normotensive rats [2]; 10 mg/kg ip, 80 min): 22.0 ± 1.4
effect on PR (normotensive rats [2]; 20 mg/kg): did not affect
effect on QRS (normotensive rats [2]; 20 mg/kg): did not affect
Rate (normotensive rats [2]; 20 mg/kg ip, 0 min): 317.4 ± 26.0
PR (normotensive rats [2]; 20 mg/kg ip, 0 min): 53.1 ± 2.8
QRS (normotensive rats [2]; 20 mg/kg ip, 0 min): 21.8 ± 1.7
Rate (normotensive rats [2]; 20 mg/kg ip, 5 min): 304.2 ± 32.0
PR (normotensive rats [2]; 20 mg/kg ip, 5 min): 52.4 ± 3.4
QRS (normotensive rats [2]; 20 mg/kg ip, 5 min): 20.9 ± 1.2
Rate (normotensive rats [2]; 20 mg/kg ip, 10 min): 278.4 ± 41.8
PR (normotensive rats [2]; 20 mg/kg ip, 10 min): 55.3 ± 1.7
QRS (normotensive rats [2]; 20 mg/kg ip, 10 min): 22.7 ± 3.4
Rate (normotensive rats [2]; 20 mg/kg ip, 15 min): 256.2 ± 52.1
PR (normotensive rats [2]; 20 mg/kg ip, 15 min): 54.2 ± 2.1
QRS (normotensive rats [2]; 20 mg/kg ip, 15 min): 22.8 ± 2.2
Rate (normotensive rats [2]; 20 mg/kg ip, 20 min): 249.9 ± 53.5
PR (normotensive rats [2]; 20 mg/kg ip, 20 min): 52.1 ± 4.2
QRS (normotensive rats [2]; 20 mg/kg ip, 20 min): 22.7 ± 2.5
Rate (normotensive rats [2]; 20 mg/kg ip, 30 min): 246.5 ± 55.6
PR (normotensive rats [2]; 20 mg/kg ip, 30 min): 51.3 ± 4.4
QRS (normotensive rats [2]; 20 mg/kg ip, 30 min): 22.0 ± 1.5
Rate (normotensive rats [2]; 20 mg/kg ip, 40 min): 242.1 ± 53.5
PR (normotensive rats [2]; 20 mg/kg ip, 40 min): 54.6 ± 2.4
QRS (normotensive rats [2]; 20 mg/kg ip, 40 min): 23.6 ± 1.5
Rate (normotensive rats [2]; 20 mg/kg ip, 50 min): 239.2 ± 55.4
PR (normotensive rats [2]; 20 mg/kg ip, 50 min): 52.5 ± 4.6
QRS (normotensive rats [2]; 20 mg/kg ip, 50 min): 22.9 ± 2.3
Rate (normotensive rats [2]; 20 mg/kg ip, 60 min): 239.5 ± 56.6
PR (normotensive rats [2]; 20 mg/kg ip, 60 min): 53.7 ± 3.0
QRS (normotensive rats [2]; 20 mg/kg ip, 60 min): 22.1 ± 1.7
Rate (normotensive rats [2]; 20 mg/kg ip, 80 min): 241.0 ± 64.1
PR (normotensive rats [2]; 20 mg/kg ip, 80 min): 53.8 ± 4.1
QRS (normotensive rats [2]; 20 mg/kg ip, 80 min): 21.0 ± 1.3
Adrenergic Receptors—pKi α2 (α2-adrenoceptor; rat cortex tissue, [3H]-clonidine): 5.72
affinity towards α2-adrenoceptor lower compared with the α1 receptor (α2-adrenoceptor; rat cortex, α1 vs α2): over 600 fold
Structure (SMILES): CCC(CN1CCN(c2ccccc2OC)CC1)NCCCOc1c(C)cccc1C.Cl.Cl (stereo not drawn) [HBK-10, N-(3-(2,6-dimethylphenoxy)propyl)-1-(4-(2-methoxyphenyl)piperazin-1-yl)butan-2-amine dihydrochloride]
effect on diastolic blood pressure (normotensive rats [1]; 0.625 mg/kg ip): did not affect
effect on systolic blood pressure (normotensive rats [1]; 0.625 mg/kg ip): did not affect
reduction of diastolic blood pressure (normotensive rats [1]; [3]): 12.5–18.3%
reduction of systolic blood pressure (normotensive rats [1]; [3]): 11.2–18.3%
dose reducing blood pressure relative to median effective dose in adrenaline-induced model (normotensive rats [1]; single ip administration): 10 fold
properties at D2 receptors (D2 receptors): antagonistic properties
properties at 5-HT1A receptors (5-HT1A receptors): antagonistic properties
dose influencing normal ECG relative to median effective dose in adrenaline-induced arrhythmia model (normotensive rats [2]): 160 fold
effect on QTc (normotensive rats [2]; 10 mg/kg): no effect
effect on heart rate (normotensive rats [2]; 10 mg/kg): no effect
QTc (normotensive rats [2]; 10 mg/kg ip, 0 min): 215.3 ± 19.3
QTc (normotensive rats [2]; 10 mg/kg ip, 5 min): 213.2 ± 20.8
QTc (normotensive rats [2]; 10 mg/kg ip, 10 min): 214.4 ± 20.0
QTc (normotensive rats [2]; 10 mg/kg ip, 15 min): 212.4 ± 12.3
QTc (normotensive rats [2]; 10 mg/kg ip, 20 min): 216.7 ± 13.8
QTc (normotensive rats [2]; 10 mg/kg ip, 30 min): 213.7 ± 19.0
QTc (normotensive rats [2]; 10 mg/kg ip, 40 min): 221.4 ± 16.9
QTc (normotensive rats [2]; 10 mg/kg ip, 50 min): 218.8 ± 11.8
QTc (normotensive rats [2]; 10 mg/kg ip, 60 min): 217.4 ± 22.0
QTc (normotensive rats [2]; 10 mg/kg ip, 80 min): 218.3 ± 25.5
QTc (normotensive rats [2]; 20 mg/kg ip, 0 min): 198.4 ± 6.1
QTc (normotensive rats [2]; 20 mg/kg ip, 5 min): 190.9 ± 8.4
QTc (normotensive rats [2]; 20 mg/kg ip, 10 min): 187.8 ± 14.7
QTc (normotensive rats [2]; 20 mg/kg ip, 15 min): 179.4 ± 16.4
QTc (normotensive rats [2]; 20 mg/kg ip, 20 min): 178.9 ± 21.9
QTc (normotensive rats [2]; 20 mg/kg ip, 30 min): 178 ± 21.6 ms
QTc (normotensive rats [2]; 20 mg/kg ip, 40 min): 175.7 ± 20.5
QTc (normotensive rats [2]; 20 mg/kg ip, 50 min): 179.3 ± 20.7
QTc (normotensive rats [2]; 20 mg/kg ip, 80 min): 173.0 ± 6.6
decrease of heart rate (normotensive rats [2]; 20 mg/kg, 10 min after administration): 12.3%
decrease of heart rate (normotensive rats [2]; 20 mg/kg, 15 min after administration): 19.3%
decrease of QTc (normotensive rats [2]; 20 mg/kg, 15 min post injection): 9.6%
decrease of heart rate (normotensive rats [2]; 20 mg/kg, 20 min after administration): 21.3%
decrease of QTc (normotensive rats [2]; 20 mg/kg, 20 min post injection): 9.8%
decrease of heart rate (normotensive rats [2]; 20 mg/kg, 30 min after administration): 22.3%
decrease of QTc (normotensive rats [2]; 20 mg/kg, 30 min post injection): 10.5%
decrease of heart rate (normotensive rats [2]; 20 mg/kg, 40 min after administration): 23.7%
decrease of QTc (normotensive rats [2]; 20 mg/kg, 40 min post injection): 11.4%
decrease of heart rate (normotensive rats [2]; 20 mg/kg, 50 min after administration): 24.6%
decrease of QTc (normotensive rats [2]; 20 mg/kg, 50 min post injection): 9.6%
decrease of heart rate (normotensive rats [2]; 20 mg/kg, 60 min after administration): 24.5%
decrease of QTc (normotensive rats [2]; 20 mg/kg, 60 min post injection): 8.3%
decrease of heart rate (normotensive rats [2]; 20 mg/kg, 80 min after administration): 24.1%
decrease of QTc (normotensive rats [2]; 20 mg/kg, 80 min post injection): 12.8%
antidepressant-like effect (mice): antidepressant-like effect

— article PMC9609429 (Pharmaceuticals, 2022)
